Laboratory results: patent US9000162B2, “5,8-difluoro-4-(2-(4-(heteroaryloxy)-phenyl)ethylamino)quinazolines and their use as agrochemicals” (Dow AgroSciences LLC, priority 2008, dated 2015)
Converted amounts (≈) assume the structure as drawn.

Experiments:
Format in all cases: in vivo
[1] = test system: Colorado Potato Beetle (Leptinotarsa decemlineata, LPTNDE); test: Colorado Potato Beetle larvae on sprayed tomato leaves; settings: foliar, 72 h, L2 larvae on sprayed tomato foliage, mortality after three days
Procedure: Formulated test compounds were diluted and sprayed onto leaves of tomato plants. When dry, plant foliage was removed from the plant and placed in 8-well agar trays. Five L2 Colorado potato beetle larvae were placed in each well, and the trays were sealed and incubated at 26° C. Mortality was evaluated after three days.

[2] = test system: Pseudoperonospora cubensis (PSPECU); test: Cucumber downy mildew foliar protectant test; settings: 200 ppm foliar, inoculated one day after treatment, read-out: Activity against fungal diseases PSPECU
How it was run: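 Cucumber seedlings, first true leaf 20-80% expanded, were sprayed to wetness with formulated compound and inoculated next day with aqueous sporangia suspension. Severity was converted to percent control versus untreated inoculated plants: ***=80-100%, **=50-79%, *=0-49%.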

[3] = test system: Puccinia recondita tritici (PUCCRT); test: Leaf rust of wheat foliar protectant test; settings: 200 ppm foliar, inoculated one day after treatment, read-out: Activity against fungal diseases PUCCRT
How it was run: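 Wheat seedlings (3–8 per pot) were sprayed to wet with formulated compound and inoculated the next day with an aqueous Puccinia recondita tritici spore suspension. Severity was converted to % control versus untreated inoculated plants and rated *** 80–100%, ** 50–79%, * 0–49%.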

[4] = test system: Magnaporthe grisea = Pyricularia oryzae (PYRIOR); test: whole plant or invertebrate; settings: foliar, read-out: Activity against fungal diseases PYRIOR
[5] = test system: Septoria tritici (SEPTTR); test: Septoria blotch of wheat foliar protectant test; settings: Zymoseptoria tritici, read-out: Activity against fungal diseases SEPTTR; for pest or weed control at 200 ppm: 200 ppm foliar, inoculated one day after treatment; for pest or weed control at 25 ppm: foliar, Tested at 25 ppm (footnote b)
How it was run: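 Wheat seedlings (3-10 per pot) were sprayed to wet with formulated compound and inoculated next day with Septoria tritici spores. Plants then had 1 day in a dark dew chamber and 3 days in a lighted one before greenhouse incubation. Severity versus untreated inoculated plants gave percent control, scored *** 80-100%, ** 50-79%, * 0-49%.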

SMILES	LC90 [1] [µg/mL]	pest or weed control at 200 ppm [2] [%]	pest or weed control at 200 ppm [3] [%]	pest or weed control at 200 ppm [4] [%]	pest or weed control at 200 ppm [5] [%]	pest or weed control at 25 ppm [5] [%]	pest or weed control at 3 ppm [4] [%]
Fc1ccc(F)c2c(NCCc3ccc(Oc4ccc(C(F)(F)F)cn4)cc3)ncnc12 [Compound 1]	0.49 (≈ 1.1 µM)	80 to 100	80 to 100	80 to 100	80 to 100		
N#Cc1ccc(Oc2ccc(CCNc3ncnc4c(F)cccc34)cc2)nc1 [reference compound]	< 3.1						
Fc1cccc2c(NCCc3ccc(Oc4cc(C(F)(F)F)ccn4)cc3)ncnc12 [drawing 199, reference compound]	3.1 to 12.5 (≈ 7.24 to 29.2 µM)						
CC(F)(F)c1cc[n+]([O-])c(Oc2ccc(CCNc3ncnc4c(F)ccc(F)c34)cc2)c1 [Compound 10]		80 to 100	80 to 100	50 to 79	80 to 100		
COc1cc(CCNc2ncnc3c(F)ccc(F)c23)ccc1Oc1ncc(C(F)(F)F)cc1F [Compound 45]		80 to 100	80 to 100	0 to 49	80 to 100		
Fc1cccc2c(NCCc3ccc(Oc4ccc(C(F)(F)F)cn4)cc3)ncnc12 [reference compound]	0.12 (≈ 0.28 µM)						
Cc1cc(O)ccc1CCNc1ncnc2c(F)ccc(F)c12 [Compound 51]		0 to 49	0 to 49	50 to 79	0 to 49		
Fc1nc(C(F)(F)F)nc(Oc2ccc(CCNc3ncnc4c(F)ccc(F)c34)cc2)c1F [Compound 100]		80 to 100	0 to 49	0 to 49	0 to 49		
Fc1ccc(F)c2c(NCCc3ccc(Oc4cc(C(F)(F)F)ccn4)c(Cl)c3)ncnc12 [Compound 90]		80 to 100	80 to 100	80 to 100	80 to 100		
CCOc1cc(CCNc2ncnc3c(F)ccc(F)c23)ccc1Oc1cc(C(F)(F)F)ccn1 [Compound 60]		80 to 100	80 to 100	80 to 100	80 to 100		
Oc1ccc(CCNc2ncnc3c(F)ccc(F)c23)cc1 [Compound 4]		50 to 79	50 to 79	0 to 49	0 to 49		
COc1cc(C(F)(F)F)cc(Oc2ccc(CCNc3ncnc4c(F)ccc(F)c34)cc2)n1 [Compound 9]		80 to 100	80 to 100	80 to 100	50 to 79		
Fc1cc(CCNc2ncnc3c(F)ccc(F)c23)ccc1Oc1cc(C(F)(F)F)ccn1 [Compound 49]		80 to 100	80 to 100	80 to 100	80 to 100		
COC(=O)c1cnc(Oc2ccc(CCNc3ncnc4c(F)ccc(F)c34)cc2)cc1C(F)(F)F [Compound 28]		80 to 100	80 to 100	80 to 100		80 to 100	
COc1cc(CCNc2ncnc3c(F)ccc(F)c23)ccc1Oc1nc(C(F)(F)F)nc(F)c1F [Compound 101]		80 to 100	50 to 79	0 to 49	0 to 49		
Fc1ccc(F)c2c(NCCc3ccc(Oc4cnccc4C(F)(F)F)cc3)ncnc12 [Compound 43]		80 to 100	80 to 100	50 to 79	80 to 100		
Fc1ccc(F)c2c(NCCc3ccc(Oc4cc(C(F)(F)F)ccn4)c(Br)c3)ncnc12 [Compound 39]		80 to 100	80 to 100	80 to 100		80 to 100	
Oc1ccc2c(c1)CC(Nc1ncnc3c(F)ccc(F)c13)C2 (stereo not drawn) [Compound 106]		50 to 79	50 to 79	50 to 79	0 to 49		
Fc1ccc(F)c2c(NCCc3ccc(Oc4ccncc4C(F)(F)F)cc3)ncnc12 [Compound 83]		80 to 100	80 to 100	80 to 100	80 to 100		

SMILES	LC90 [1] [µg/mL]	pest or weed control at 200 ppm [2] [%]	pest or weed control at 200 ppm [3] [%]	pest or weed control at 200 ppm [4] [%]	pest or weed control at 200 ppm [5] [%]	pest or weed control at 25 ppm [5] [%]	pest or weed control at 3 ppm [4] [%]
CC(C)Oc1cc(CCNc2ncnc3c(F)ccc(F)c23)ccc1Oc1cc(C(F)(F)F)ccn1 [Compound 58]		80 to 100	80 to 100	80 to 100	80 to 100		
Cc1cc(CCNc2ncnc3c(F)cc(F)c(F)c23)ccc1Oc1cc(C(F)(F)F)cc[n+]1[O-] [Compound 81]		80 to 100	80 to 100	80 to 100	80 to 100		
CCCOc1cc(CCNc2ncnc3c(F)ccc(F)c23)ccc1Oc1cc(C(F)(F)F)ccn1 [Compound 57]		80 to 100	80 to 100	80 to 100	80 to 100		
Cc1cc(CCNc2ncnc3c(F)ccc(F)c23)ccc1Oc1ccnc(C(F)(F)F)c1 [Compound 82]		80 to 100	80 to 100	80 to 100	80 to 100		
[O-][n+]1ccc(C(F)(F)F)cc1Oc1ccc(CCNc2ncnc3c(F)ccc(F)c23)cc1 [Compound 54]		80 to 100	80 to 100	80 to 100	80 to 100		
[O-][n+]1ccc(C(F)(F)F)cc1Oc1ccc(CCNc2ncnc3c(F)cc(F)c(F)c23)cc1 [Compound 75]		80 to 100	80 to 100	80 to 100	80 to 100		
Cc1cc(CCNc2ncnc3c(F)ccc(F)c23)ccc1Oc1cc(C(F)(F)F)ccn1 [Compound 25]		80 to 100	80 to 100	80 to 100	80 to 100		
Fc1cc(CCNc2ncnc3c(F)ccc(F)c23)ccc1Oc1ccc(C(F)(F)F)cn1 [Compound 130]		80 to 100	80 to 100	80 to 100	80 to 100		
Cc1cc(CCNc2ncnc3c(F)ccc(F)c23)ccc1Oc1nc(F)c(F)c(N)c1F [Compound 99]		80 to 100	80 to 100	80 to 100	0 to 49		
Fc1ccc(F)c2c(NCCc3ccc(Oc4cnccc4C(F)(F)F)c(Cl)c3)ncnc12 [Compound 91]		80 to 100	80 to 100	80 to 100	80 to 100		
Cc1cc(CCNc2ncnc3c(F)ccc(F)c23)ccc1Oc1ccncc1C(F)(F)F [Compound 37]		80 to 100	80 to 100			50 to 79	80 to 100
Cc1cc(CCNc2ncnc3c(F)ccc(F)c23)ccc1Oc1cc(C(C)(F)F)ccn1 [Compound 64]		80 to 100	80 to 100	80 to 100	80 to 100		
Fc1ccc(F)c2c(NCCc3ccc(Oc4c(Cl)cnc(C(F)(F)F)c4Cl)cc3)ncnc12 [Compound 95]		80 to 100	80 to 100	80 to 100	80 to 100		
Fc1cc(Oc2ncc(C(F)(F)F)cc2F)ccc1CCNc1ncnc2c(F)ccc(F)c12 [Compound 122]		80 to 100	80 to 100	50 to 79		80 to 100	
COc1ccc(CCNc2ncnc3c(F)ccc(F)c23)cc1Br [Compound 32]		80 to 100	80 to 100	50 to 79	0 to 49		
CCc1cc(CCNc2ncnc3c(F)ccc(F)c23)ccc1Oc1cc(C(F)(F)F)ccn1 [Compound 66]		80 to 100	80 to 100	80 to 100	80 to 100		
N#Cc1cc(CCNc2ncnc3c(F)ccc(F)c23)ccc1Oc1cc(C(F)(F)F)ccn1 [Compound 41]		80 to 100	80 to 100	80 to 100		50 to 79	
Cc1cc(Oc2cc(C(F)(F)F)ncn2)ccc1CCNc1ncnc2c(F)ccc(F)c12 [Compound 118]		80 to 100	80 to 100	80 to 100		80 to 100	
Cc1cc(CCNc2ncnc3c(F)ccc(F)c23)ccc1Oc1c(Cl)cnc(C(F)(F)F)c1Cl [Compound 79]		50 to 79	80 to 100	80 to 100	80 to 100		
